# Literature values in US8052982B2, “Bioimplant formulation comprising lecithin and stearin” (Peptech Animal Health PTY Limited, priority 1998, dated 2011).
row,Compound,log octanol/water partition (log P)
1,C[C@H](CS)C(=O)N1CCC[C@H]1C(=O)O [captopril],−1.86
2,Cn1c(=O)c2c(ncn2CCO)n(C)c1=O [etofylline],0.35
3,O=C(O)c1ccccc1Nc1cccc(C(F)(F)F)c1 [flufenamic acid],1.14
4,C[C@@H](O)[C@@H]1NC(=O)[C@H](CCCCN)NC(=O)[C@@H](Cc2c[nH]c3ccccc23)NC(=O)[C@H](Cc2ccccc2)NC(=O)[C@@H](NC(=O)[C@H](N)Cc2ccccc2)CSSC[C@@H](C(=O)N[C@H](CO)[C@@H](C)O)NC1=O [octreotide],1.40
5,CCC[C@H](N[C@@H](C)C(=O)N1[C@H](C(=O)O)C[C@@H]2CCCC[C@@H]21)C(=O)O [perindoprilate],−0.36
6,CC(CN1c2ccccc2Sc2ccccc21)N(C)C (centres unmarked) [promethazine],4.75
7,C[C@H](N[C@@H](CCc1ccccc1)C(=O)O)C(=O)N1Cc2ccccc2C[C@H]1C(=O)O [quinaprilate],0.69
8,C[C@H](N[C@@H](CCc1ccccc1)C(=O)O)C(=O)N1[C@H](C(=O)O)C[C@H]2CCCC[C@@H]21 [trandolaprilate],1.02
